Data: PubChem BioAssay (NCI)
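Step 1: Grow cells in 96-well plates. Step 2: Expose to compound for 48 hours at 5 concentrations. Step 3: Interpolate endpoints linearly; if unreached, use highest concentration. TGI denotes the concentration required for complete inhibition of growth.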

How the values were obtained:
Test in all cases: DTP human tumour cell line panel, 48 h
[1] = test system: UO-31 renal
[2] = test system: NCI-H23 lung
[3] = test system: OVCAR-8 ovarian
[4] = test system: A498 renal
[5] = test system: CAKI-1 renal
[6] = test system: HOP-62 NSCLC
[7] = test system: HCT-15 colon
[8] = test system: UACC-62 melanoma
[9] = test system: TK-10 renal
[10] = test system: CCRF-CEM leukemia
[11] = test system: NCI-H522 lung
[12] = test system: SNB-19 CNS
[13] = test system: HS 578T breast

SMILES | TGI [1] | TGI [2] | TGI [3] | TGI [4] | TGI [5] | TGI [6] | TGI [7] | TGI [8] | TGI [9] | TGI [10] | TGI [11] | TGI [12] | TGI [13]
COc1ccc2c(c1)CC1NC2Cc2ccccc21 (stereo not drawn) | > 100 µM | > 100 µM | > 100 µM | > 100 µM | > 100 µM | > 100 µM | > 100 µM | > 100 µM | > 100 µM | > 100 µM | > 100 µM |  | 
CCOC(=O)Cc1nc2nn(Cc3ccccc3)cc2c(=O)[nH]1 | > 100 µM | > 100 µM | > 100 µM | > 100 µM | > 100 µM | > 100 µM | > 100 µM | > 100 µM | > 100 µM | > 100 µM |  | > 100 µM | 
O=C(/C=C(\O)C(=O)O)/C=C(\O)c1ccccc1Cl | > 100 µM | > 100 µM | > 100 µM | > 100 µM | > 100 µM | > 100 µM | > 100 µM | > 100 µM | > 100 µM | > 100 µM | > 100 µM | > 100 µM | 
CCOC(=O)c1c(-c2ccc(Cl)cc2)c(C#N)c(=S)n(C2OC(CO)C(O)C(O)C2O)c1-c1ccccc1 (stereo not drawn) | > 100 µM | 72.7 µM |  |  | 82.6 µM | 36 µM | 85.6 µM | 38.2 µM | 84 µM | 53.9 µM |  | 52.4 µM | 58.6 µM
COC(=O)CC1CN(C(=O)OCc2ccccc2)C(C)(C)O1 (stereo not drawn) | > 100 µM | > 100 µM | > 100 µM | > 100 µM | > 100 µM |  | > 100 µM | > 100 µM | > 100 µM | > 100 µM | > 100 µM | > 100 µM | 
O=C1OC(c2ccccc2)(c2ccccc2)CC1CN1CCOCC1 (stereo not drawn) | 99.4 µM | 43.9 µM | > 100 µM | > 100 µM |  | > 100 µM | 29.6 µM | > 100 µM | 31.6 µM | 9.44 µM | 22.8 µM | > 100 µM | 
c1ccc2c(NCCCCCCCCNc3cccc4ccccc34)cccc2c1 | > 100 µM | 65 µM | 54.8 µM | > 100 µM | 35.8 µM | > 100 µM | 84.7 µM | 45.9 µM | 43.6 µM | 42.5 µM | 36 µM | > 100 µM | 
COC(=O)C1=C(C(=O)OC)C(C(=O)c2ccccc2)N2N=C(c3ccc(Cl)cc3)C=CC12 (stereo not drawn) | > 100 µM | > 100 µM | > 100 µM | > 100 µM | > 100 µM | > 100 µM | > 100 µM | > 100 µM | > 100 µM | > 100 µM | 43.5 µM | > 100 µM | 
CC(C(O)c1ccccc1)N(C)/N=N/c1nc2c([nH]1)c(=O)n(C)c(=O)n2C (stereo not drawn) | > 100 µM | > 100 µM | > 100 µM |  | > 100 µM | > 100 µM | > 100 µM | > 100 µM | > 100 µM | > 100 µM |  | > 100 µM | > 100 µM
Nc1ccccc1C(=O)NNC(=O)c1ccccc1N | > 100 µM | > 100 µM | > 100 µM | > 100 µM | > 100 µM | > 100 µM | > 100 µM | > 100 µM | > 100 µM | > 100 µM | > 100 µM | > 100 µM | 
CCCCC1(OC(=O)CCC(=O)O)CCC2(CCC(C)C(C/C=C(C)/C=C/C(O)C(C)/C=C/C(=O)O)O2)OC1CC/C(C)=C/C(=O)O (stereo not drawn) | 8.14 µM | 3.49 µM | 7.67 µM | 12.6 µM | 15.3 µM | 4.96 µM | 12.4 µM | 2.62 µM | 58.5 µM | 27.4 µM | 7.72 µM | 11.8 µM | 
CC1C(c2ccccc2)=CCON1c1ccccc1 (stereo not drawn) | > 100 µM | > 100 µM | > 100 µM |  | > 100 µM | > 100 µM | > 100 µM | > 100 µM |  | > 100 µM | > 100 µM | > 100 µM | 
Clc1cccc(Cl)c1C1SCc2nc3cc4ccccc4cc3n21 (stereo not drawn) | > 100 µM | > 100 µM | > 100 µM |  | > 100 µM | > 100 µM | > 100 µM | > 100 µM | > 100 µM | > 100 µM |  | > 100 µM | > 100 µM
Clc1ccc2c(Cl)ncnc2c1I | > 100 µM | > 100 µM | > 100 µM |  | > 100 µM | > 100 µM | > 100 µM | > 100 µM | > 100 µM |  | 56.6 µM | > 100 µM | 
Cc1ccc(-c2cnc(NC3OC(COC(=O)c4ccccc4)C(OC(=O)c4ccccc4)C(OC(=O)c4ccccc4)C3OC(=O)c3ccccc3)s2)cc1 (stereo not drawn) | > 100 µM | > 100 µM | > 100 µM |  |  | > 100 µM | > 100 µM | > 100 µM | > 100 µM |  | > 100 µM | > 100 µM | > 100 µM
Cc1nc(Nc2ccccc2)sc1C(=O)NNC(N)=O | > 100 µM | > 100 µM | > 100 µM | > 100 µM | > 100 µM | > 100 µM |  | > 100 µM | > 100 µM | > 100 µM | > 100 µM | > 100 µM | 
Cc1ccc2nc(CN3CCCCC3)cc(=O)n2c1 | > 100 µM | > 100 µM | > 100 µM |  | > 100 µM | > 100 µM | > 100 µM | > 100 µM | > 100 µM | > 100 µM | > 100 µM | > 100 µM | > 100 µM
Cc1nc2c(n1CCCl)C(=O)c1ccccc1C2=O |  | 92.2 µM | 42.6 µM |  |  | 62.4 µM | 40.9 µM | 44.2 µM | 78.5 µM | > 100 µM | 49.6 µM | > 100 µM | > 100 µM
BrC12C3C4C5C(C(C43)C13OCCO3)C52 (stereo not drawn) | > 100 µM | > 100 µM | > 100 µM | > 100 µM |  | > 100 µM |  |  | > 100 µM | > 100 µM | > 100 µM | > 100 µM | 
